Laboratory results from paper PMC6664820, “Novel natural and synthetic inhibitors of solute carriers SGLT1 and SGLT2” (Pharmacology Research & Perspectives, 2019).

Columns and labels:
SGLT1 [1] = target: T1, SGLT1 (Homo sapiens, UniProt P13866); assay: cell-based; set-up: host or cells: CHO-K1; details: CHO, read-out: % of control remaining
T1 sequence (P13866 1-664): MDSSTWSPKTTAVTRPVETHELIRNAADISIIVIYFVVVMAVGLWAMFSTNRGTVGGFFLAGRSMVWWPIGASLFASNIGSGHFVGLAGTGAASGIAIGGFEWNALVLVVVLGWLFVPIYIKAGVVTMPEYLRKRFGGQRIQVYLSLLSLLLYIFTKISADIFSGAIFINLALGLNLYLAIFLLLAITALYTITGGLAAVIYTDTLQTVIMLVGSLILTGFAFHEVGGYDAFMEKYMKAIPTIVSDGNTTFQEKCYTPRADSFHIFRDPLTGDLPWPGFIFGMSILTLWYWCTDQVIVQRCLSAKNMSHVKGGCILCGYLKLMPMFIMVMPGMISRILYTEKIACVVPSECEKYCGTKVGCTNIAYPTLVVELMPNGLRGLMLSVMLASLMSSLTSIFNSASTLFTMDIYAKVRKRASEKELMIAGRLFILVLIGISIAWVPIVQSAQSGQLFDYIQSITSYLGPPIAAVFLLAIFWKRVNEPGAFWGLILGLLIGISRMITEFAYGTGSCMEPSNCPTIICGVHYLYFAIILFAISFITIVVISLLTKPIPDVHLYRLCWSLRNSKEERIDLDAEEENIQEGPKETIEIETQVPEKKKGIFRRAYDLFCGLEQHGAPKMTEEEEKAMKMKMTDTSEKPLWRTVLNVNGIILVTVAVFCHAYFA

hSGLT2 [2] = target: T2, hSGLT2 (Homo sapiens, UniProt P31639); assay: cell-based; set-up: host or cells: CHO-K1; details: CHO, read-out: % of control remaining
T2 sequence (P31639 1-672): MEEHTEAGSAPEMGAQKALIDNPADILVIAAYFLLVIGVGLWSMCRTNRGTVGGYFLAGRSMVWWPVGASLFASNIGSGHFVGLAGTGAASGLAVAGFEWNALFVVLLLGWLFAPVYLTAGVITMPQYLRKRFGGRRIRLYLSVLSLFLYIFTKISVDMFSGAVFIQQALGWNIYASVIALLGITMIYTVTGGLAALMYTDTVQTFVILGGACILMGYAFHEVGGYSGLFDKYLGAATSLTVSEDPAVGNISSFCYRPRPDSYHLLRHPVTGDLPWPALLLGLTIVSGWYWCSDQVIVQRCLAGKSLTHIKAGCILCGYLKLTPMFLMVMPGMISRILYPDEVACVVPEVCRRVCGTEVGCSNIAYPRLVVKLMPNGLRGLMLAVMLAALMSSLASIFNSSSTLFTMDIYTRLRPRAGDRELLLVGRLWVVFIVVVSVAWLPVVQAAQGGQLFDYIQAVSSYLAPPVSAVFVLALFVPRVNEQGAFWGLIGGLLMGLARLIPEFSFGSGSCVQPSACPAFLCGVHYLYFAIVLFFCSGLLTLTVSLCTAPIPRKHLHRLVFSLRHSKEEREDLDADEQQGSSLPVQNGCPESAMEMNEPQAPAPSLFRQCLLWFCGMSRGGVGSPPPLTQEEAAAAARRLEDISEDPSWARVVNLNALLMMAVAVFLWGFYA

CHO‐hSGLT1/2 cells = assay: Cytotoxicity assay (ToxiLight, adenylate kinase leakage into CHO‐SGLT1/2 inhibition assay media); set-up: CYTOTOXICITY / CY[…], mean / CYTOTOXICITY (% of vehicle control) Mean / CYTOTOXICITY, mean / CY[…] (% of vehicle control) Mean: dose or concentration left out as unconfirmed; details: mean;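 also: bioluminescent read-out of adenylate kinase released from lysed cells into the medium, given relative to DMSO vehicle control defined as 0%, higher meaning more cytolysis; percent of DMSO vehicle control bioluminescence with vehicle set at 0%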
SGLT1 [3] = target: T1, SGLT1; assay: SGLT1 inhibition assay for validation of screening hits and similar compounds (1‐NBD‐glucose uptake, CHO‐hSGLT1 cells); format: cell-based
hSGLT2 [4] = target: T2, hSGLT2; assay: SGLT2 inhibition assay for validation of screening hits and similar compounds (1‐NBD‐glucose uptake, CHO‐hSGLT2 cells); format: cell-based; details: 1‐NBD‐glucose uptake, CHO‐hSGLT2; mean of n biological replicates, or individual measurements where n=2; read-out: SGLT2‐IC50 Mean
SGLT1 [5] = target: T1, SGLT1; assay: Cellular uptake and transcellular transport of 14C‐α‐methylglucose by Caco‐2 cell monolayers; format: cell-based; set-up: Caco‐2 cells expressing endogenous SGLT1; host or cells: Caco-2; details: 90 minutes
Experimental: Caco‐2 cells (passage numbers 7 and 13) were seeded (29,700 cells) onto polycarbonate Transwell® inserts (6.5 mm diameter and 3.0 μm pores) and cultured for 21‐24 days to obtain differentiated polarized monolayers. Apical and basal medium was refreshed twice a week and the final medium refresh was done the day before the uptake and transport experiment. TransEpithelial Electrical Resistance (TEER) was measured with an EVOM^2 epithelial voltmeter (World Precision Instruments, Sarasota, USA) and inserts were used if TEER > 3000 Ω/cm^2. First, cells were washed twice apically and basally with D‐glucose free DMEM. Then, 100 μL (+)‐pteryxin dilutions (50 μmol/L and 500 μmol/L), P p.‐extract dilutions (1/200 and 1/2000), or 0.5% (v/v) DMSO vehicle control were applied apical in D‐glucose free DMEM with 0.3% (w/v) BSA and 40 nCi/mL ^14C‐α‐methylglucose. The basal acceptor wells (24‐well) contained 350 μL D‐glucose free DMEM with 0.3% (w/v) BSA. Then, cells were incubated in a humidified incubator at 37°C with 5% CO2 for 90 minutes. Inserts were transferred to a clean 24‐well plate and washed once with DMEM (with D‐glucose) and once with HBSS, with 1 mL at the basal and 100 μL at the apical side. Cells were lysed with 100 μL of 0.2 mol/L NaOH for 30 minutes at 37°C and lysates were analyzed by liquid scintillation counting on a Tri‐Carb 2910 TR (Perkin Elmer, Groningen, The Netherlands) to determine cellular ^14C‐α‐methylglucose uptake. Basal media were analyzed accordingly to determine transcellular ^14C‐α‐methylglucose transport. Mean ± SD ^14C‐α‐methylglucose uptake and transport were calculated from two biological replicates, each consisting of four technical replicates.

Row | Compound | remaining activity at 5 µM (SGLT1 [1]) [%] | remaining activity at 50 µM (SGLT1 [1]) [%] | remaining activity at 5 µM (hSGLT2 [2]) [%] | remaining activity at 50 µM (hSGLT2 [2]) [%] | CYTOTOXICITY (CHO‐hSGLT1/2 cells) | IC50 (SGLT1 [3]; 1‐NBD‐glucose uptake, CHO‐hSGLT1, mean of n biological replicates, or individual measurements where n=2, read-out: SGLT1‐IC50 Mean) [µM] | inhibition at 50 µM (SGLT1 [3]; mean inhibition with 50 μmol/L inhibitor, read-out: SGLT1 inhibition) [%] | IC50 (hSGLT2 [4]) [µM] | Inhibition of 14C‐α‐methylglucose cellular uptake (SGLT1 [5]; Caco‐2, 50 μmol/L) [%] | Inhibition of transcellular transport of 14C‐α‐methylglucose (SGLT1 [5]; Caco‐2, 50 μmol/L) [%] | Inhibition of 14C‐α‐methylglucose cellular uptake (SGLT1 [5]; Caco‐2, 500 μmol/L) [%] | Inhibition of transcellular transport of 14C‐α‐methylglucose (SGLT1 [5]; Caco‐2, 500 μmol/L) [%]
1 | C[C@@H]1O[C@@H](O[C@H]2[C@H](O[C@H]3CC[C@@]4(C)[C@@H](CC[C@]5(C)[C@@H]4CC=C4[C@@H]6CC(C)(C)CC[C@]6(C(=O)O[C@@H]6O[C@H](CO[C@@H]7O[C@H](CO)[C@@H](O[C@@H]8O[C@@H](C)[C@H](O)[C@@H](O)[C@H]8O)[C@H](O)[C@H]7O)[C@@H](O)[C@H](O)[C@H]6O)CC[C@]45C)[C@]3(C)CO)OC[C@H](O)[C@@H]2O)[C@H](O)[C@H](O)[C@H]1O [Hederacoside C] | 97.9 | 102 | 113 | 115 | -28 | – | – | – | – | – | – | –
2 | CC=C(C)C(=O)OC1c2c(ccc3ccc(=O)oc23)OC(C)(C)C1OC(C)=O (stereo not drawn) [(+)‐pteryxin] | – | – | – | – | – | 12 | 89 | 9 | 18 | 37 | 91 | 89
